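Abbreviation: GI50, concentration required for 50% inhibition of growth. TGI denotes the concentration required for complete inhibition of growth.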
Tests used:
Experiment in all cases: NCI tumour cell line growth inhibition, 384-well format
MOLT-4 leukemia = tested on: MOLT-4 leukemia
HOP-92 NSCLC = tested on: HOP-92 NSCLC
SK-OV-3 ovarian = tested on: SK-OV-3 ovarian
HOP-62 NSCLC = tested on: HOP-62 NSCLC
SK-MEL-28 melanoma = tested on: SK-MEL-28 melanoma
A498 renal = tested on: A498 renal
HL-60(TB) leukemia = tested on: HL-60(TB) leukemia
RXF 393 renal = tested on: RXF 393 renal
OVCAR-3 ovarian = tested on: OVCAR-3 ovarian
CAKI-1 renal = tested on: CAKI-1 renal
MDA-MB-435 melanoma = tested on: MDA-MB-435 melanoma
NCI-H522 lung = tested on: NCI-H522 lung
T-47D breast = tested on: T-47D breast
HS 578T breast = tested on: HS 578T breast
MDA-MB-468 breast = tested on: MDA-MB-468 breast
ACHN renal = tested on: ACHN renal
SNB-19 CNS = tested on: SNB-19 CNS
PC-3 prostate = tested on: PC-3 prostate
U251 glioblastoma = tested on: U251 glioblastoma
NCI-H322M lung = tested on: NCI-H322M lung
DU-145 prostate = tested on: DU-145 prostate
CCRF-CEM leukemia = tested on: CCRF-CEM leukemia
SK-MEL-5 melanoma = tested on: SK-MEL-5 melanoma
RPMI-8226 leukemia = tested on: RPMI-8226 leukemia
NCI-H460 NSCLC = tested on: NCI-H460 NSCLC
OVCAR-4 ovarian = tested on: OVCAR-4 ovarian
TK-10 renal = tested on: TK-10 renal
IGROV1 ovarian = tested on: IGROV1 ovarian
COLO 205 colon = tested on: COLO 205 colon
EKVX NSCLC = tested on: EKVX NSCLC
LOX IMVI melanoma = tested on: LOX IMVI melanoma
MCF7 breast = tested on: MCF7 breast
HCT-15 colon = tested on: HCT-15 colon
SF-539 CNS = tested on: SF-539 CNS
MALME-3M melanoma = tested on: MALME-3M melanoma
BT-549 breast = tested on: BT-549 breast
OVCAR-5 ovarian = tested on: OVCAR-5 ovarian
NCI/ADR-RES ovarian = tested on: NCI/ADR-RES ovarian
HCT-116 colon = tested on: HCT-116 colon
SR leukemia = tested on: SR leukemia
KM12 colon = tested on: KM12 colon
NCI-H23 lung = tested on: NCI-H23 lung
A549 NSCLC = tested on: A549 NSCLC
SN12C renal = tested on: SN12C renal
K-562 leukemia = tested on: K-562 leukemia
786-0 renal = tested on: 786-0 renal
SF-268 CNS = tested on: SF-268 CNS
UO-31 renal = tested on: UO-31 renal
SW-620 colon = tested on: SW-620 colon
MDA-MB-231 breast = tested on: MDA-MB-231 breast
SK-MEL-2 melanoma = tested on: SK-MEL-2 melanoma

COc1ccccc1S(=O)(=O)Nc1ccc2c(c1)CN(C)C(=O)N2 gave a GI50 (MOLT-4 leukemia) of less than 10 nM, a TGI (MOLT-4 leukemia) of 19.5 nM and a GI50 (HOP-92 NSCLC) of less than 10 nM. It also gave a TGI (HOP-92 NSCLC) of 66800 nM, a GI50 (SK-OV-3 ovarian) of less than 10 nM and a TGI (SK-OV-3 ovarian) of 7040 nM. It also gave a GI50 (HOP-62 NSCLC) of 20.8 nM, a TGI (HOP-62 NSCLC) greater than 100000 nM and a GI50 (SK-MEL-28 melanoma) of less than 10 nM. It also gave a TGI (SK-MEL-28 melanoma) greater than 100000 nM, a GI50 (A498 renal) of less than 10 nM and a TGI (A498 renal) of 60700 nM. For the same compound, the GI50 (HL-60(TB) leukemia) was less than 10 nM, the TGI (HL-60(TB) leukemia) was 13.1 nM and the GI50 (RXF 393 renal) was less than 10 nM. It also gave a TGI (RXF 393 renal) of less than 10 nM, a GI50 (OVCAR-3 ovarian) of 12 nM and a TGI (OVCAR-3 ovarian) of 33.2 nM. It also gave a GI50 (CAKI-1 renal) of less than 10 nM, a TGI (CAKI-1 renal) greater than 100000 nM and a GI50 (MDA-MB-435 melanoma) of less than 10 nM. For the same compound, the TGI (MDA-MB-435 melanoma) was less than 10 nM, the GI50 (NCI-H522 lung) was less than 10 nM and the TGI (NCI-H522 lung) was less than 10 nM. The GI50 (T-47D breast) was 17200 nM, the TGI (T-47D breast) was greater than 100000 nM and the GI50 (HS 578T breast) was less than 10 nM. For the same compound, the TGI (HS 578T breast) was 19.2 nM, the GI50 (MDA-MB-468 breast) was 17.1 nM and the TGI (MDA-MB-468 breast) was 34.7 nM. For the same compound, the GI50 (ACHN renal) was 15.3 nM, the TGI (ACHN renal) was greater than 100000 nM and the GI50 (SNB-19 CNS) was 19.8 nM. The TGI (SNB-19 CNS) was 20000 nM, the GI50 (PC-3 prostate) was less than 10 nM and the TGI (PC-3 prostate) was greater than 100000 nM. It also gave a GI50 (U251 glioblastoma) of 26.7 nM, a TGI (U251 glioblastoma) of 82.2 nM and a GI50 (NCI-H322M lung) of 18.8 nM. It also gave a TGI (NCI-H322M lung) greater than 100000 nM, a GI50 (DU-145 prostate) of 20.2 nM and a TGI (DU-145 prostate) of 58.1 nM. For the same compound, the GI50 (CCRF-CEM leukemia) was less than 10 nM, the TGI (CCRF-CEM leukemia) was less than 10 nM and the GI50 (SK-MEL-5 melanoma) was less than 10 nM. It also gave a TGI (SK-MEL-5 melanoma) of 12.9 nM, a GI50 (RPMI-8226 leukemia) of 19.5 nM and a TGI (RPMI-8226 leukemia) of 37.3 nM. The GI50 (NCI-H460 NSCLC) was 21.3 nM, the TGI (NCI-H460 NSCLC) was 45.3 nM and the GI50 (OVCAR-4 ovarian) was 16.2 nM. The TGI (OVCAR-4 ovarian) was greater than 100000 nM, the GI50 (TK-10 renal) was less than 10 nM and the TGI (TK-10 renal) was greater than 100000 nM. It also gave a GI50 (IGROV1 ovarian) of 22.5 nM, a TGI (IGROV1 ovarian) of 73600 nM and a GI50 (COLO 205 colon) of less than 10 nM. The TGI (COLO 205 colon) was 62.6 nM, the GI50 (EKVX NSCLC) was 20.5 nM and the TGI (EKVX NSCLC) was greater than 100000 nM. The GI50 (LOX IMVI melanoma) was 21.3 nM, the TGI (LOX IMVI melanoma) was 87.1 nM and the GI50 (MCF7 breast) was 35.9 nM. The TGI (MCF7 breast) was 12300 nM, the GI50 (HCT-15 colon) was 12.6 nM and the TGI (HCT-15 colon) was 46.9 nM. For the same compound, the GI50 (SF-539 CNS) was 14.4 nM, the TGI (SF-539 CNS) was 37.6 nM and the GI50 (MALME-3M melanoma) was less than 10 nM. It also gave a TGI (MALME-3M melanoma) greater than 100000 nM, a GI50 (BT-549 breast) of less than 10 nM and a TGI (BT-549 breast) of 32.4 nM. It also gave a GI50 (OVCAR-5 ovarian) of 26 nM, a TGI (OVCAR-5 ovarian) greater than 100000 nM and a GI50 (NCI/ADR-RES ovarian) of 12 nM. It also gave a TGI (NCI/ADR-RES ovarian) of 27.1 nM, a GI50 (HCT-116 colon) of 14.5 nM and a TGI (HCT-116 colon) of 77.3 nM. It also gave a GI50 (SR leukemia) of less than 10 nM, a TGI (SR leukemia) of less than 10 nM and a GI50 (KM12 colon) of 18.8 nM. It also gave a TGI (KM12 colon) of 71.4 nM, a GI50 (NCI-H23 lung) of 16.3 nM and a TGI (NCI-H23 lung) of 53.7 nM. For the same compound, the GI50 (A549 NSCLC) was 33.1 nM, the TGI (A549 NSCLC) was greater than 100000 nM and the GI50 (SN12C renal) was 24.7 nM. The TGI (SN12C renal) was greater than 100000 nM, the GI50 (K-562 leukemia) was less than 10 nM and the TGI (K-562 leukemia) was 18 nM. It also gave a GI50 ([…]-0 renal) of 16.7 nM, a TGI (786-0 renal) of 15900 nM and a GI50 (SF-268 CNS) of 20.3 nM. It also gave a TGI (SF-268 CNS) of 134 nM, a GI50 (UO-31 renal) of 20.6 nM and a TGI (UO-31 renal) greater than 100000 nM. The GI50 (SW-620 colon) was 31.1 nM, the TGI (SW-620 colon) was greater than 100000 nM and the GI50 (MDA-MB-231 breast) was 32.4 nM. For the same compound, the TGI (MDA-MB-231 breast) was greater than 100000 nM, the GI50 (SK-MEL-2 melanoma) was 18.1 nM and the TGI (SK-MEL-2 melanoma) was 39.3 nM.
